This note sets out measurements from patent US12172983B2, “EGFR inhibitors” (Blueprint Medicines Corporation, priority 2019, dated 2024).

Like-named read-outs stand apart in the source and are kept apart here.

In assay [1] the test system is phosphorylation of EGFR (Tyr1068) in NCI-H1975 cell line that harbors the EGFR L858R T790M mutations. Kind of assay: NCI-H1975 pEGFR AlphaLISA assay. Format: cell-based. Conditions: 4-5 hours incubation, read-out: Ext pEGFR H1975. The essentials: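 Phospho-EGFR Tyr1068 AlphaLISA readout: lysates taken from compound-treated H1975 cells (L858R T790M EGFR) after a 4-5 h exposure at 37 °C. Cells had adhered overnight beforehand. IC50 derived by plotting % pEGFR inhibition against log compound concentration.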

Another assay concerns the target T1, EGFR (L858R T790M C797S) (Homo sapiens, UniProt P00533, C797S/L858R/T790M).
T1 construct: purchased SignalChem E10-122VG
Briefly: Biochemical EGFR inhibition assay (Caliper mobility shift), EGFR LRTMCS mutant. As to conditions: inhibitory activity against EGFR LRTMCS mutant; apparent IC50; read-out: Ext Enz LRTMCS. The gist of the method: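 Kinase reactions proceed at 25° C. to 10%–20% conversion of total peptide, are terminated with 35 mM EDTA, and the phosphopeptide is resolved from substrate by electrophoretic mobility shift. Apparent IC50 values come from plotting percent activity against log compound concentration.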

The mark [2] stands for this setting: inhibition of phosphorylation of mutant EGFR in NCI-H1975 cells.
Where [3] appears, read: Homo sapiens, NCI-H1975, inhibition of phosphorylation of mutant EGFR in NCI-H1975 cells.

T1 sequence (P00533 25-1210 T790M/C797S/L858R): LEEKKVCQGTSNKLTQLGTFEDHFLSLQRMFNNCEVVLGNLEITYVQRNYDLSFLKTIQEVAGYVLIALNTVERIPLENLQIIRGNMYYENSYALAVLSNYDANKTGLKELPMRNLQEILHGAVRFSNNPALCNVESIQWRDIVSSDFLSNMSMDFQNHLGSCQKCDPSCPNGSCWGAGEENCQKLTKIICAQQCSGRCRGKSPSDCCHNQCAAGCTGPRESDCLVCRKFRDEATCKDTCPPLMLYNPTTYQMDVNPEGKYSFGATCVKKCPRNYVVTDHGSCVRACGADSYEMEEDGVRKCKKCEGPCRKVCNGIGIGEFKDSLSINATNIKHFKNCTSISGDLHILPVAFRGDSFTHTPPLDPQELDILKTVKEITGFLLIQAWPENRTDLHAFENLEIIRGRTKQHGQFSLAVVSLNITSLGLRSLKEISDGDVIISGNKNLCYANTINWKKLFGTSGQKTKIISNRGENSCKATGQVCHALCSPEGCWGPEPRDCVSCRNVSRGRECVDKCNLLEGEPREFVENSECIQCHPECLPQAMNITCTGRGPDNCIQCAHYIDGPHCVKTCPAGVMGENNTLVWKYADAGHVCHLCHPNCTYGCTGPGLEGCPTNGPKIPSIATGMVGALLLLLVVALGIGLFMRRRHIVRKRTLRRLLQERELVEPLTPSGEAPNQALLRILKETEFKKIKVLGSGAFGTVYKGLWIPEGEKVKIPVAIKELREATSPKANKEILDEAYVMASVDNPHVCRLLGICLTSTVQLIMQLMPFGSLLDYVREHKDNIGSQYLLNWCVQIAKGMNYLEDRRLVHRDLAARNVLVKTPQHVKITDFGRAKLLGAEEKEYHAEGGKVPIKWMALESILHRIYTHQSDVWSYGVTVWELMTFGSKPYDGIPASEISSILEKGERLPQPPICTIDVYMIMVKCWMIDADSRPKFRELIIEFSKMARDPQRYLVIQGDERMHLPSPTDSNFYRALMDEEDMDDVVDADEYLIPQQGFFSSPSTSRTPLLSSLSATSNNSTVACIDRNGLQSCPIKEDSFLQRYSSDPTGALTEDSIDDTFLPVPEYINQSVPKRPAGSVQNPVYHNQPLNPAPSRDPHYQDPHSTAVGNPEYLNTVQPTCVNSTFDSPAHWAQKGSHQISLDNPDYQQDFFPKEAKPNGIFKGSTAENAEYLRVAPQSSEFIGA

With `CN[C@H]1CCN(c2nccc(Nc3cc4c(C(C)C)ccc(N5C[C@H](CS(C)(=O)=O)[C@H]5C)c4cn3)n2)CC1(F)F` (single isomer, unassigned) [Compound 310, N-{2-[(4R)-3,3-difluoro-4-(methylamino)piperidin-1-yl]pyrimidin-4-yl}-8-[(2R,3S)-3-(methanesulfonylmethyl)-2-methylazetidin-1-yl]-5-(propan-2-yl)isoquinolin-3-amine or N-{2-[(4S)-3,3-difluoro-4(methylamino)piperidin-1-yl]pyrimidin-4-yl}-8-[(2R,3S)-3-(methanesulfonylmethyl)-2-methylazetidin-1-yl]-5-(propan-2-yl)isoquinolin-3-amine], the IC50 in assay [1] (setting [2]) was at most 10 nM; on EGFR (L858R T790M C797S) it was at most 15 nM.
Take `[2H]C([2H])([2H])O[C@H]1[C@@H](O)CN(c2nccc(Nc3cc4c(C(C)C)ccc(N5C[C@H](CS(C)(=O)=O)[C@H]5C)c4cn3)n2)CC1(F)F` (single isomer, unassigned) [Compound 313, (3S,4S)-5,5-difluoro-1-(4-((5-isopropyl-8-((2R,3S)-2-methyl-3-((methylsulfonyl)methyl)azetidin-1-yl)isoquinolin-3-yl)amino)pyrimidin-2-yl)-4-(^2H3)methoxypiperidin-3-ol or (3R,4R)-5,5-difluoro-1-(4-((5-isopropyl-8-((2R,3S)-2-methyl-3-((methylsulfonyl)methyl)azetidin-1-yl)isoquinolin-3-yl)amino)pyrimidin-2-yl)-4-(^2H3)methoxypiperidin-3-ol]: the IC50 in assay [1] (setting [3]) was at most 10 nM; on EGFR (L858R T790M C797S), 20.1 to 30 nM.
Turning to `[2H]C([2H])([2H])O[C@H]1[C@@H](O)CN(c2nccc(Nc3cc4c(C(C)C)ccc(N5C[C@H](CS(C)(=O)=O)[C@H]5C)c4cn3)n2)CC1(F)F` (single isomer, unassigned) [Compound 314, (3S,4S)-5,5-difluoro-1-(4-((5-isopropyl-8-((2R,3S)-2-methyl-3-((methylsulfonyl)methyl)azetidin-1-yl)isoquinolin-3-yl)amino)pyrimidin-2-yl)-4-(^2H3)methoxypiperidin-3-ol or (3R,4R)-5,5-difluoro-1-(4-((5-isopropyl-8-((2R,3S)-2-methyl-3-((methylsulfonyl)methyl)azetidin-1-yl)isoquinolin-3-yl)amino)pyrimidin-2-yl)-4-(^2H3)methoxypiperidin-3-ol], the figures for the IC50 (in assay [1] (setting [2]); on EGFR (L858R T790M C797S)) were at most 10 nM and 30.1 to 100 nM, respectively.
Regarding `CO[C@@H]1[C@H](F)CN(c2nccc(Nc3cc4c(C(C)C)ccc(N5CC(CS(C)(=O)=O)C5)c4cn3)n2)C[C@@H]1OC` (stereo in doubt) [Compound 201], the results for the IC50 (in assay [1] (setting [3]); at EGFR (L858R T790M C797S)) were at most 10 nM and 20.1 to 30 nM, respectively.
In the case of `CC(C)c1ccc(N2CC(CS(C)(=O)=O)C2)c2cnc(Nc3ccnc(N4CCOCC4)n3)cc12` [Compound 1, 8-[3-(methanesulfonylmethyl)azetidin-1-yl]-N-[2-(morpholin-4-yl)pyrimidin-4-yl]-5-(propan-2-yl)isoquinolin-3-amine], the IC50 in assay [1] (setting [3]) was in the range of 30.1 to 50 nM; at EGFR (L858R T790M C797S), 15.1 to 20 nM.
The matching figures for `CC(C)c1cnc(N2CC(CS(C)(=O)=O)C2)c2cnc(Nc3ccnc(N4CCN(C)CC4)n3)cc12` [Compound 3, 8-[3-(methanesulfonylmethyl)azetidin-1-yl]-N-[2-(4-methylpiperazin-1-yl)pyrimidin-4-yl]-5-(propan-2-yl)-2,7-naphthyridin-3-amine]: 30.1 to 50 nM and 20.1 to 30 nM.
For `CO[C@H]1CCN(c2nccc(Nc3cc4cccc(N5C[C@H](CS(C)(=O)=O)[C@H]5C)c4cn3)n2)C[C@H]1F` [Compound 4, N-{2-[(3R,4S)-3-fluoro-4-methoxypiperidin-1-yl]pyrimidin-4-yl}-8-[(2R,3S)-3-(methanesulfonylmethyl)-2-methylazetidin-1-yl]isoquinolin-3-amine], the IC50 in assay [1] (setting [3]) is 30.1 to 50 nM; on EGFR (L858R T790M C797S), at most 15 nM.
The matching figures for `CO[C@@H]1CCN(c2nccc(Nc3cc4cccc(N5C[C@H](CS(C)(=O)=O)[C@H]5C)c4cn3)n2)C[C@@H]1F` [Compound 5, N-{2-[(3S,4R)-3-fluoro-4-methoxypiperidin-1-yl]pyrimidin-4-yl}-8-[(2R,3S)-3-(methanesulfonylmethyl)-2-methylazetidin-1-yl]isoquinolin-3-amine]: 10.1 to 20 nM and at most 15 nM.
The matching figures for `CC(C)c1ccc(N2CC(CS(C)(=O)=O)C2)c2cnc(Nc3ccnc(N4C[C@H]5COC[C@H]5C4)n3)cc12` [Compound 10, N-{2-[(3aR,6aS)-hexahydro-1H-furo[3,4-c]pyrrol-5-yl]pyrimidin-4-yl}-8-[3-(methanesulfonylmethyl)azetidin-1-yl]-5-(propan-2-yl)isoquinolin-3-amine]: 30.1 to 50 nM and at most 15 nM.
For the compound `CC(C)c1ccc(N2CC(CS(C)(=O)=O)C2)c2cnc(Nc3ccnc(N4CC5CCC(C4)O5)n3)cc12` [Compound 12, 8-[3-(methanesulfonylmethyl)azetidin-1-yl]-N-(2-{8-oxa-3-azabicyclo[3.2.1]octan-3-yl}pyrimidin-4-yl)-5-(propan-2-yl)isoquinolin-3-amine], the IC50 was 30.1 to 50 nM in assay [1] (setting [3]) and at most 15 nM on EGFR (L858R T790M C797S).
As for `CC(C)c1cnc(N2CC(CS(C)(=O)=O)C2)c2cnc(Nc3ccnc(N4C[C@H]5COC[C@H]5C4)n3)cc12` [Compound 14, N-{2-[(3aR,6aS)-hexahydro-1H-furo[3,4-c]pyrrol-5-yl]pyrimidin-4-yl}-8-[3-(methanesulfonylmethyl)azetidin-1-yl]-5-(propan-2-yl)-2,7-naphthyridin-3-amine or N-{2-[(3aS,6aR)-hexahydro-1H-furo[3,4-c]pyrrol-5-yl]pyrimidin-4-yl}-8-[3-(methanesulfonylmethyl)azetidin-1-yl]-5-(propan-2-yl)-2,7-naphthyridin-3-amine], the IC50 in assay [1] (setting [2]) lay in the range of 30.1 to 50 nM; at EGFR (L858R T790M C797S), 15.1 to 20 nM.
With `CC(C)c1ccc(N2C[C@H](CS(C)(=O)=O)[C@H]2C)c2cnc(Nc3ccnc(N4CCN(C)CC4)n3)cc12` [Compound 16, 8-[(2R,3S)-3-(methanesulfonylmethyl)-2-methylazetidin-1-yl]-N-[2-(4-methylpiperazin-1-yl)pyrimidin-4-yl]-5-(propan-2-yl)isoquinolin-3-amine], the results for the IC50 (in assay [1] (setting [3]); at EGFR (L858R T790M C797S)) were 10.1 to 20 nM and 20.1 to 30 nM, respectively.
`CC(C)c1ccc(N2CC(CS(C)(=O)=O)C2)c2cnc(Nc3ccnc(N4CCC(C)(O)CC4)n3)cc12` [Compound 17, 1-[4-({8-[3-(methanesulfonylmethyl)azetidin-1-yl]-5-(propan-2-yl)isoquinolin-3-yl}amino)pyrimidin-2-yl]-4-methylpiperidin-4-ol]: the IC50 was 10.1 to 20 nM in assay [1] (setting [3]) and at most 15 nM at EGFR (L858R T790M C797S).
As for `COC1CCN(c2nccc(Nc3cc4c(C(C)C)cnc(N5CC(CS(C)(=O)=O)C5)c4cn3)n2)CC1` [Compound 22, 8-[3-(methanesulfonylmethyl)azetidin-1-yl]-N-[2-(4-methoxypiperidin-1-yl)pyrimidin-4-yl]-5-(propan-2-yl)-2,7-naphthyridin-3-amine], the IC50 in assay [1] (setting [3]) was at most 10 nM; on EGFR (L858R T790M C797S), at most 15 nM.
The matching figures for `COC1CCN(c2nncc(Nc3cc4c(C(C)C)ccc(N5CC(CS(C)(=O)=O)C5)c4cn3)n2)CC1` [Compound 23, 8-[3-(methanesulfonylmethyl)azetidin-1-yl]-N-[3-(4-methoxypiperidin-1-yl)-1,2,4-triazin-5-yl]-5-(propan-2-yl)isoquinolin-3-amine]: 10.1 to 20 nM and at most 15 nM.
The matching figures for `CC(C)c1ccc(N2CC(CS(C)(=O)=O)C2)c2cnc(Nc3ccnc(N4CC[C@@H](O)[C@@H](F)C4)n3)cc12` [Compound 28, (3S,4R)-3-fluoro-1-[4-({8-[3-(methanesulfonylmethyl)azetidin-1-yl]-5-(propan-2-yl)isoquinolin-3-yl}amino)pyrimidin-2-yl]piperidin-4-ol]: at most 10 nM and at most 15 nM.
With `CC(C)c1ccc(N2CC(CS(C)(=O)=O)C2)c2cnc(Nc3ccnc(N4CC[C@H](O)[C@H](F)C4)n3)cc12` [Compound 29, (3R,4S)-3-fluoro-1-[4-({8-[3-(methanesulfonylmethyl)azetidin-1-yl]-5-(propan-2-yl)isoquinolin-3-yl}amino)pyrimidin-2-yl]piperidin-4-ol], the IC50 in assay [1] (setting [3]) was at most 10 nM; at EGFR (L858R T790M C797S) it was at most 15 nM.
On to `CO[C@@H]1CCN(c2nccc(Nc3cc4c(F)ccc(N5C[C@H](CS(C)(=O)=O)[C@H]5C)c4cn3)n2)C[C@@H]1F` [Compound 36, 5-fluoro-N-{2-[(3S,4R)-3-fluoro-4-methoxypiperidin-1-yl]pyrimidin-4-yl}-8-[(2R,3S)-3-(methanesulfonylmethyl)-2-methylazetidin-1-yl]isoquinolin-3-amine], for which the IC50 was at most 10 nM in assay [1] (setting [3]) and at most 15 nM at EGFR (L858R T790M C797S).
The matching figures for `CO[C@H]1CCN(c2nccc(Nc3cc4c(F)ccc(N5C[C@H](CS(C)(=O)=O)[C@H]5C)c4cn3)n2)C[C@H]1F` [Compound 37, 5-fluoro-N-{2-[(3R,4S)-3-fluoro-4-methoxypiperidin-1-yl]pyrimidin-4-yl}-8-[(2R,3S)-3-(methanesulfonylmethyl)-2-methylazetidin-1-yl]isoquinolin-3-amine]: 10.1 to 20 nM and at most 15 nM.
For `CC(C)c1ccc(N2CC(CS(C)(=O)=O)C2)c2cnc(Nc3ccnc(N4CCC5(CCO5)CC4)n3)cc12` [Compound 38, 8-[3-(methanesulfonylmethyl)azetidin-1-yl]-N-(2-{1-oxa-7-azaspiro[3.5]nonan-7-yl}pyrimidin-4-yl)-5-(propan-2-yl)isoquinolin-3-amine] the same measures were at most 10 nM and at most 15 nM.
